# Results: patent US7276337B2, “Compositions and methods for visual ribonuclease detection assays” (Integrated DNA Technologies, Inc., priority 2000, dated 2007)
# Columns and labels:
# Ribonuclease A = molecular target: T1, Ribonuclease A (Bos taurus, UniProt P61823); experiment: Visual detection ribonuclease assay, cleavage of Substrate ODN by RNase A; type: biochemical, mammalian; set-up: key to Sensitivity of Substrate ODN to Ribonuclease A, relative signal intensity: +++ = maximum intensity; ++ = moderate intensity; + = faint but above background; − = negative (identical to background); settings: Substrate 500 nM; for Sensitivity of Substrate ODN to Ribonuclease A, relative signal intensity: visual inspection, UV excitation, 37° C. 60 minutes
# T1 sequence (P61823 27-150): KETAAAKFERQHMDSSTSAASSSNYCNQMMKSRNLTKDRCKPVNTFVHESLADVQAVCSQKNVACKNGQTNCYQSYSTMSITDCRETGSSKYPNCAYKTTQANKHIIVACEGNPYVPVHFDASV
# Procedure: Nuclease assays were conducted using the methods of the invention. SEQ ID NO:2 and SEQ ID NO:30 oligonucleotides were individually mixed in 1× Assay Buffer at a concentration of 500 nM (50 pmoles ODN in 100 ul volume) in thin-walled, UV transparent microtubes. RNase A (1 ul, diluted to 0;1 ug/ul) was added to the respective Assay Mixes. […] Assays were set up directly in microtubes as follows:
# Assay Mixes were incubated at room temperature for 10 minutes. Assays were visually examined for fluorescence emission directly in the assay tubes without further manipulation. Tubes were suspended above an ultraviolet light source, visually inspected, and photographed using a digital camera. […] The “positive” and “control” reactions appeared markedly different and were easily distinguished. […] The “positive” and “control” reactions were not markedly different to visual inspection.
# (§1) Nuclease assays were conducted using the method of the invention with both visual and fluorometric detection methods. Substrates were individually mixed in 1× Assay Buffer at a concentration of 50 nM (50 pmoles oligonucleotide in 1 ml volume) for fluorometric detection or at a concentration of 500 nM (50 pmoles of oligonucleotide in 100 ul volume) for visual detection. Test nucleases were added to respective Assay Mixes beginning at 1 ul stock reagent and proceeding with a 1:10 serial dilution until undetectable. Reaction mixes were incubated at 37° C. for 60 minutes. Fluorometric detection was performed as outlined in Example 2. Visual detection was performed as outlined in Example 1.
# (§2) Table 6: Sensitivity of different Substrate ODNs to Ribonuclease A. A series of Substrate ODNs were synthesized and tested for sensitivity to RNase A degradation. Stock enzyme was serial diluted to achieve final concentrations of 1 ng/ml, 100 pg/ml, and 10 pg/ml as indicated. Reactions were examined for fluorescence emission by visual inspection using an ultraviolet (UV) light source for excitation. Results were scored as +++, ++, +, or − based on relative signal intensity.
# (§3) It is commonly accepted that fluorometry provides for high sensitivity. To be useful, the visual method must also offer high sensitivity. Assays were conducted using the method of the invention with visual detection. Substrate SEQ ID NO:30 was mixed in 1× Assay Buffer at a concentration of 500 nM (50 pmoles ODN in 100 ul volume) in thin-walled, UV transparent tubes. […] Dilutions of stock RNase A, RNase 1, and RNase T1 were made in water. Undiluted and diluted nuclease (1 ul) was added to respective 100 ul Assay Mixes resulting in final dilution factors of 10^−2, 10^−3, 10^−4, 10^−5, 10^−6, and 10^−7. Assays were incubated at room temperature for 10 minutes and visually examined for fluorescence emission with UV excitation. […] The experiment took about 30 minutes to perform, including 15 minutes to set-up serial dilutions, 10 minutes incubation, and 5 minutes to visualize and photograph. Thus the method of the invention allows for a rapid, simple, and convenient visual assay for the presence of ribonuclease activity.
# RNase A = molecular target: T2, RNase A (Bos taurus, UniProt P61823); experiment: Fluorometric detection nuclease assay, RNase A; type: biochemical, mammalian; settings: RNase A 0.33 ug/ml; Substrate 50 nM; 37° C. 1 hour; 490 nm excitation
# T2 sequence (P61823 27-150): T1 sequence (P61823 27-150)
# Procedure: (§4) Nuclease assays were conducted using the method of the invention. SEQ ID NO:2 and SEQ ID NO:3 oligonucleotides were individually mixed in 1× Assay Buffer at a concentration of 50 nM (150 pmoles oligonucleotide in 3 mls volume). […] Assays were set up directly in cuvettes as follows:
# (§5) Assay Mixes were incubated at 37° C. for 1 hour. Fluorescence emission spectra were measured using a PTI fluorometer with 490 nm excitation. Substrate SEQ ID NO:2 (having chimeric RNA-DNA composition) reacted with both DNase I (undesired) and RNase A (desired).
# Nuclease assays were conducted using the method of the invention. The Substrate (SEQ ID NO:30) was mixed in 1× Assay Buffer at a concentration of 50 nM (150 pmoles oligonucleotide in 3 mls volume). Test nucleases were added to respective Assay Mixes, including 1 ul of RNase A (1 ug), 1 ul of RNase 1 (100 units), or 1 ul of RNase T1 (1000 units). […] Assays were set up directly in cuvettes as follows:
# Assay Mixes were incubated at 37° C. for 1 hour. Assays were transferred to cuvettes and fluorescence emission at 520 nm was measured using a PTI fluorometer with 490 nm excitation. Substrate SEQ ID NO:30, a preferred Substrate of the invention, reacted with (i.e., detected) all three RNase enzymes, verifying that Substrate compositions of the invention are sensitive to a variety of RNase enzymes.
# Substrate SEQ ID NO:30 was mixed in 1× Assay Buffer at a concentration of 50 nM (150 pmoles oligonucleotide in 3 mls volume). RNase A was added at final concentrations of 10 ng/ml, 2 ng/ml, 1 ng/ml, and 0.4 ng/ml. […] Assay mixes were incubated at 37° C. in a cuvette directly in a PTI fluorometer. Fluorescence emission at 520 nm with 490 nm excitation was measured over time. At high nuclease concentrations, the reaction goes rapidly to completion. At lower nuclease concentrations, the reaction rate decreases but with longer incubation times an easily detectable signal is generated. Substrate concentration is fixed and input enzyme (i.e., the test sample) varies. Since the background is stable (monitored in the control reaction), use of extended incubation periods will increase the sensitivity of the assay.
# Assays were conducted using the method of the invention with fluorometric detection. Substrate SEQ ID NO:30 was mixed in 1× Assay Buffer at a concentration of 50 nM (50 pmoles ODN in 1.0 ml volume) in RNase-free disposable cuvettes. […] Dilutions of stock RNase A, RNase 1, and RNase T1 were made in water. Undiluted and diluted nuclease (1 ul) was added to respective 1.0 ml Assay Mixes resulting in final dilution factors of 10^−3, 10^−4, 10^−5, 10^−6, 10^−7, 10^−8, and 10^−9. Assays were incubated at 37° C. for 1 hour and examined for fluorescence emission at 520 nm using 490 nm excitation in a PTI fluorometer. Final enzyme concentration reported notes the lowest concentration tested that was reproducibly positive with a signal:noise ratio of at least 2:1.
# DNase I = DNase I (Bos taurus, UniProt P00639); experiment: Fluorometric detection nuclease assay, DNase I (nuclease specificity); type: biochemical; settings: DNase I 2 units/ml; Substrate 50 nM; 37° C. 1 hour; 490 nm excitation
# Chain of DNase I (P00639 23-282): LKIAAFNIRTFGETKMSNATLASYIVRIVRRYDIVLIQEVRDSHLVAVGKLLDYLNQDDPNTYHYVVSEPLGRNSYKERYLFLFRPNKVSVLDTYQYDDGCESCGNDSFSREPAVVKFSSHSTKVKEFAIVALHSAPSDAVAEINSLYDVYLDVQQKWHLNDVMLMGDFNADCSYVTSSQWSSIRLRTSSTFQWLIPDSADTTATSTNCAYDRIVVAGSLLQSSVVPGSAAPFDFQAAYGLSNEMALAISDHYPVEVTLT
# Procedure: as §4, §5
# Ribonuclease T1 = molecular target: T3, Ribonuclease T1 (Aspergillus oryzae, UniProt P00651); experiment: Visual detection ribonuclease assay, cleavage of Substrate ODN by RNase T1; type: biochemical; set-up: key to Sensitivity of Substrate ODN to Ribonuclease T1, relative signal intensity: +++ = maximum intensity; ++ = moderate intensity; + = faint but above background; − = negative (identical to background); settings: visual inspection, UV excitation, Substrate 500 nM, 37° C. 60 minutes
# T3 sequence (P00651 27-130): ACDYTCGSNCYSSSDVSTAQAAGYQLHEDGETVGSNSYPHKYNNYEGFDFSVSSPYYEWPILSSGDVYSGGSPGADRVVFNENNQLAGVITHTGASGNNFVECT
# Procedure: as §1
# as §2, with “Table 7:” for “Table 6:”, “Ribonuclease T1.” for “Ribonuclease A.”, “RNase T1” for “RNase A”, “of 0.001 units/ml, 0.0001 units/ml,” for “of 1 ng/ml, 100 pg/ml,”, “and 0.00001 units/ml” for “and 10 pg/ml”
# as §3
Substance,"Fluorescence emission by visual inspection in the presence of RNase (Ribonuclease A; RNase A 1.0 ug/ml, room temperature 10 minutes, UV light source)","Fluorescence emission by visual inspection in the absence of RNase (control reaction) (Ribonuclease A; no nuclease, room temperature 10 minutes, UV light source)",Reactivity with RNase A (fluorometer) (RNase A),Reactivity with DNase I (fluorescence emission spectra) (DNase I),"Sensitivity of Substrate ODN to Ribonuclease A, relative signal intensity (Ribonuclease A; RNase A 10 pg/ml)","Sensitivity of Substrate ODN to Ribonuclease A, relative signal intensity (Ribonuclease A; RNase A 100 pg/ml)","Sensitivity of Substrate ODN to Ribonuclease A, relative signal intensity (Ribonuclease A; RNase A 1 ng/ml)","Sensitivity of Substrate ODN to Ribonuclease T1, relative signal intensity (Ribonuclease T1; RNase T1 10^−3 units/ml)","Sensitivity of Substrate ODN to Ribonuclease T1, relative signal intensity (Ribonuclease T1; RNase T1 10^−4 units/ml)","Sensitivity of Substrate ODN to Ribonuclease T1, relative signal intensity (Ribonuclease T1; RNase T1 10^−5 units/ml)"
"5′ Fluorescein-AuAA-Tamra 3′ (NAUAAN; 5' fluorescein and 3' TAMRA labels, nucleotide chemistry not given here) [SEQ ID NO:2, reference compound]",changed somewhat in color and slightly increased in intensity,emitted light,reacted,reacted,,,,,,
"5′ Fluorescein-AAuAA-Dabcyl 3′ (NAAUAAN; 5' fluorescein and 3' Dabcyl labels, nucleotide chemistry not given here) [SEQ ID NO:3]",,,retained reactivity,did not react,−,+,++,−,−,−
